{"source": "patent US20180155757A1", "about": "“IDENTIFICATION OF BACTERIA THAT ARE RESISTANT TO CARBAPENEMS BY MEMBRANE IMPERVIOUSNESS” (BIOMÉRIEUX, priority 2015, published 2018)", "format_in_all_cases": "cell-based", "key": {"E. aerogenes 9306071": {"tested_on": "E. aerogenes 9306071", "assay": "MIC of PMBN", "experimental": "(§1) Likewise, prior to carrying out the discriminating method according to the invention, the PMBN-sensitivity of each of the model strains used was evaluated by means of a method of microdilution in liquid medium.\n(§2) To do this, each of the strains was cultured in Mueller-Hinton broth (MHII-Becton Dickinson®, United States). On inocula containing 2×10^5 CFU/ml, serial doubling dilutions were carried out for the PMBN in order to determine the minimum inhibitory concentrations. The PMBN-sensitivity was read after 18 hours of incubation at 37° C., by addition of 0.2 mg/ml of iodonitrotetrazolium chloride (Sigma-Aldrich®, United States)."}, "[1]": {"tested_on": "K. pneumoniae 1108007 (VIM-1 producer)", "assay": "MIC of PMBN", "experimental": "as §1, §2"}, "[2]": {"tested_on": "E. coli 1012292 (KPC-2 producer)", "assay": "MIC of PMBN", "experimental": "as §1, §2"}, "E. cloacae 9304026": {"tested_on": "E. cloacae 9304026", "assay": "MIC of PMBN", "experimental": "as §1, §2"}, "[3]": {"tested_on": "E. cloacae 1008096 (VIM-1 producer)", "assay": "MIC of PMBN", "experimental": "as §1, §2"}, "[4]": {"tested_on": "E. cloacae 0901026 (KPC-2 producer)", "assay": "MIC of PMBN", "experimental": "as §1, §2"}, "[5]": {"tested_on": "E. cloacae 1008073 (VIM-1 producer)", "assay": "MIC of PMBN", "experimental": "as §1, §2"}, "K. pneumoniae 1204034": {"tested_on": "K. pneumoniae 1204034", "assay": "MIC of PMBN", "experimental": "as §1, §2"}, "E. aerogenes 9203076": {"tested_on": "E. aerogenes 9203076", "assay": "MIC of PMBN", "experimental": "as §1, §2"}, "E. coli 1204043": {"tested_on": "E. coli 1204043", "assay": "MIC of PMBN", "experimental": "as §1, §2"}, "C. freundii 1204047": {"tested_on": "C. freundii 1204047", "assay": "MIC of PMBN", "experimental": "as §1, §2"}, "E. cloacae 9402034": {"tested_on": "E. cloacae 9402034", "assay": "MIC of PMBN", "experimental": "as §1, §2"}, "[6]": {"tested_on": "K. pneumoniae 1108001 (KPC-2 producer)", "assay": "MIC of PMBN", "experimental": "as §1, §2"}, "[7]": {"tested_on": "E. coli 1008077 (VIM-1 producer)", "assay": "MIC of PMBN", "experimental": "as §1, §2"}, "[8]": {"tested_on": "K. pneumoniae 0901027 (KPC-3 producer)", "assay": "MIC of PMBN", "experimental": "as §1, §2"}, "K. pneumoniae 1002015": {"tested_on": "K. pneumoniae 1002015", "assay": "MIC of PMBN", "experimental": "as §1, §2"}, "[9]": {"tested_on": "S. marcescens 1008175 (IMP-1 producer)", "assay": "MIC of PMBN", "experimental": "as §1, §2"}, "[10]": {"tested_on": "E. cloacae 1008079 (IMP-1 producer)", "assay": "MIC of PMBN", "experimental": "as §1, §2"}, "[11]": {"tested_on": "K. pneumoniae 0404024 (VIM-1 producer)", "assay": "MIC of PMBN", "experimental": "as §1, §2"}, "[12]": {"tested_on": "K. pneumoniae 1104053 (OXA-48 producer)", "assay": "MIC of PMBN", "experimental": "as §1, §2"}, "E. aerogenes 1204048": {"tested_on": "E. aerogenes 1204048", "assay": "MIC of PMBN", "experimental": "as §1, §2"}, "[13]": {"tested_on": "K. pneumoniae 1108002 (KPC-3 producer)", "assay": "MIC of PMBN", "experimental": "as §1, §2"}, "[14]": {"tested_on": "E. coli 0506040 (VIM-1 producer)", "assay": "MIC of PMBN", "experimental": "as §1, §2"}, "[15]": {"tested_on": "E. cloacae 1101172 (NDM producer)", "assay": "MIC of PMBN", "experimental": "as §1, §2"}, "[16]": {"tested_on": "K. pneumoniae 1012335 (OXA-48 producer)", "assay": "MIC of PMBN", "experimental": "as §1, §2"}, "C. freundii 0403012": {"tested_on": "C. freundii 0403012", "assay": "MIC of PMBN", "experimental": "as §1, §2"}, "[17]": {"tested_on": "Enterobacter aerogenes EA 27", "assay": "MIC of PMBN, microdilution in liquid medium", "experimental": "as §1, §2"}}, "data": [{"substance": "polymyxin B nonapeptide [PMBN]", "values": [{"measurement": "MICPMBN", "setting": "E. aerogenes 9306071", "result": "MICPMBN = 1024 μg/ml"}, {"measurement": "MICPMBN", "setting": "[1]", "result": "MICPMBN = 1024 μg/ml"}, {"measurement": "MICPMBN", "setting": "[2]", "result": "MICPMBN = 1024 μg/ml"}, {"measurement": "MICPMBN", "setting": "E. cloacae 9304026", "result": "MICPMBN >1024 μg/ml"}, {"measurement": "MICPMBN", "setting": "[3]", "result": "MICPMBN = 1024 μg/ml"}, {"measurement": "MICPMBN", "setting": "[4]", "result": "MICPMBN = 1024 μg/ml"}, {"measurement": "MICPMBN", "setting": "[5]", "result": "MICPMBN = 1024 μg/ml"}, {"measurement": "MICPMBN", "setting": "K. pneumoniae 1204034", "result": "MICPMBN = 256 ng/ml"}, {"measurement": "MICPMBN", "setting": "E. aerogenes 9203076", "result": "MICPMBN = 1024 μg/ml"}, {"measurement": "MICPMBN", "setting": "E. coli 1204043", "result": "MICPMBN = 512 μg/ml"}, {"measurement": "MICPMBN", "setting": "C. freundii 1204047", "result": "MICPMBN = 1024 μg/ml"}, {"measurement": "MICPMBN", "setting": "E. cloacae 9402034", "result": "MICPMBN >1024 μg/ml"}, {"measurement": "MICPMBN", "setting": "[6]", "result": "MICPMBN = 1024 μg/ml"}, {"measurement": "MICPMBN", "setting": "[7]", "result": "MICPMBN = 1024 μg/ml"}, {"measurement": "MICPMBN", "setting": "[8]", "result": "MICPMBN >1024 μg/ml"}, {"measurement": "MICPMBN", "setting": "K. pneumoniae 1002015", "result": "MICPMBN = 1024 μg/ml"}, {"measurement": "MICPMBN", "setting": "[9]", "result": "MICPMBN = 1024 μg/ml"}, {"measurement": "MICPMBN", "setting": "[10]", "result": "MICPMBN >1024 μg/ml"}, {"measurement": "MICPMBN", "setting": "[11]", "result": "MICPMBN >1024 μg/ml"}, {"measurement": "MICPMBN", "setting": "[12]", "result": "MICPMBN = 1024 μg/ml"}, {"measurement": "MICPMBN", "setting": "E. aerogenes 1204048", "result": "MICPMBN >1024 μg/ml"}, {"measurement": "MICPMBN", "setting": "[13]", "result": "MICPMBN >1024 μg/ml"}, {"measurement": "MICPMBN", "setting": "[14]", "result": "MICPMBN = 128 μg/ml"}, {"measurement": "MICPMBN", "setting": "[15]", "result": "MICPMBN = 1024 μg/ml"}, {"measurement": "MICPMBN", "setting": "[16]", "result": "MICPMBN = 1024 μg/ml"}, {"measurement": "MICPMBN", "setting": "C. freundii 0403012", "result": "MICPMBN = 256 μg/ml"}, {"measurement": "MICPMBN", "setting": "[17]", "result": "MICPMBN = 1024 μg/ml"}]}]}
